Data on two substances can be found in patent US20110281802A1, “COMPOSITION FOR TREATMENT AND PREVENTION OF HAIR LOSS AND PREMATURE GRAYING OF HAIR” (Immudiagnostik AG, priority 2007, published 2011).

Where no end group is shown, it is not given here.

What all share (assay type): cell-based
One assay relates to thymulin. The assay can be described thus: Thymulin staining of GH-treated hair follicles.
The test system of assay [1] is human anagen VI hair follicles. The experiment in a line: Hair shaft elongation of organ-cultured hair follicles, assay #1 (culture HF 429). The procedure:
(§1) Human anagen VI hair follicles were isolated from scalp skin obtained from three different individuals undergoing routine face-lift surgery. All experiments were performed according to Helsinki guidelines.
(§2) Hair follicles were isolated as described (Philpott MP et al, Human hair growth in vitro; J Cell Science 1990, 97(Pt 3):463-71). Isolated HFs were maintained in supplemented, serum-free Williams E medium (Biochrom, Cambridge, UK) supplemented with 2 mMol/L L-glutamine (Invitrogen, Paisley, UK), 10 ng/mL hydrocortisone (Sigma-Aldrich, Taufkirchen, Germany), 10 μg/mL insulin (Sigma-Aldrich), and 1% antibiotic/antimycotic mixture (Gibco, Karlsruhe, Germany). Hair follicles were placed in a 24-well plate with 500 μL medium (day 0) and incubated in a CO2-incubator (5% CO2, 37° C.) over night without any treatment. The next day (day 1) medium was exchanged and test substance was added to each well (5 μL of stock solution was added to 495 μL culture medium). The medium or medium with test substance was changed every 48 hours.
(§3) Assay #1 Culture HF429: Hair follicles were grown in the wells of a microtiter plate (3 follicles per well) and treated for 9 days with culture medium and test substance as indicated in FIG. 1. Thereafter, elongation, melanogenesis and hair cycle stage were determined.
(§4) Hair shaft length measurements were performed every second day on individual hair follicles using a binocular microscope with an eyepiece measuring reticule. The length of the follicle was defined as the distance between the base of the bulb and the cut end of the hair fibre (Philpott MP et al, Human hair growth in vitro; J Cell Science 1990, 97(Pt 3):463-71).
(§5) All data were analysed by two-tailed unpaired t-test (SPSS analysis software SPSS Inc., Chicago, USA). For determination of elongation, two outliers at top and bottom end of value range were eliminated; with the measurement of melanogenesis one outlier at both, top and bottom range, was eliminated. Results are given as mean value and standard error of measurement (SEM).

The subject of assay [2] is human anagen hair follicles. The assay can be described thus: Ki67/TUNEL staining, percentage of proliferating cells, assay #3. The following applies: for Mean percentage of Ki67-positive cells: after 9 days of culture, Anagen only; for Percentage of proliferating cells compared to the control (in words): nine days, p<0.05. The procedure:
(§6) Assay #3 Culture HF 446: Eight hair follicle cultures (3 follicles/well) were treated with various concentration of test substance as described for 2 days, followed by snap freezing and sectioning of two wells. Six wells were treated up to 9 days, then snap frozen and sectioned. The distribution of test substances and concentrations were as indicted in FIG. 3. The parameter measured after two days was proliferation/apoptosis, and the parameters measured after 9 days were elongation, proportion of cells in proliferation/apoptosis, and hair cycle stage
After nine days, Ki67/TUNEL staining was performed and photos taken.
Proliferating and resting cells as well as cells undergoing apoptosis were counted separately proximal Auber's line. Results are expressed as percentages. For Ki-67/TUNEL staining, fixed sections were incubated for 60 minutes in a solution comprising 30% TdT-enzyme (Chemicon International, Inc., Temecula, Calif., USA; CatNo S1707). 2 mL stop buffer (Chemicon International, Inc.; CatNo S7110), diluted in 68 mL distilled water, was added for 10 minutes to stop the reaction. This was followed by a pre-incubation for 20 minutes with 10% goat serum (Dako Cytomation, CatNo 50114121) and incubation with mouse-anti human Ki-67 antigen (Chemicon International, Inc., CatNo S7110) 1:20 in PBS with 2% goat serum. The fixed section was then washed in PBS, treated with anti-digoxigenin antibody (Chemicon International, Inc., CatNo S7110) (59DI Antibody solution and 5601 Stop solution, 30 minutes) and goat anti-mouse-IgG-rhodamine red (Jackson Immuno Research, Suffolk, UK; CatNo 115-295-062), 1:200 in PBS with 2% goat serum. After washes with PBS, counterstaining with DAPI™ ([…]) (Roche, Basel, Switzerland; CatNo 236276) and further washes with PBS and mounting using Fluoromount (Southern Biotech, Birmingham, Ala., USA; CatNo 0100-01).
After nine days, Ki67/TUNEL staining was performed and photos were taken. In anagen hair follicles, proliferating cells and cells undergoing apoptosis were counted separately proximal Auber's line. Results are expressed as percentages. […] The results are summarized in Table 6 and FIG. 9 showing the mean percentage of Ki6 7 positive cells with SEM

Assay [3] deals with human anagen VI hair follicles. The assay can be described thus: Melanogenesis, Fontana Masson staining measured by Image J, assay #1. The note with it: for Mean relative darkening of the groups (measured by image J), Mean: 9 days, dark=small index number, light=high index number. The procedure:
as §3
Fontana Masson staining was performed at the end of the culture period and photos taken of snap frozen sections. The photos were analysed (Image J, public domain, developed at the National Institutes of Health, USA) by measuring the density of two squares, consisting of 150×150 dots, placed over the darkest areas on both sides of the dermal papilla. For Fontana-Masson staining, fixed sections were treated in darkness for 40 minutes with a solution containing 10% silver nitrate (Merck & Co., Inc., Whitehouse Station, N.J., USA; CatNo 1.01512.0100), following by a development in solution containing 5% sodium thiosulphate (Merck & Co., Inc.; CatNo 1.06512.2500) for 1 minute and multiple washings in distilled water for 3 minutes. Counterstaining with 0.5% Neutralrot (Chroma Muenster, Germany, CatNo 2E038). Then dehydration in xylol and covering with Eukitt (O. Kindler GmbH, Freiburg, Germany; CatNo E115).
as §5
Micro-dissected anagen VI hair follicles were treated as above described. At the end of the culture period Fontana Masson staining was performed and photos were taken of the snap frozen sections. The pictures were analysed by measuring the darkness (brightness) of two squares, consisting of 150×150 dots, placed over the darkest areas on both sides of the dermal papilla (dark=small index number, light=high index number). The shading of the different groups was compared to each other and the results were analysed using Student's t-test. The results are shown below in Table 5 and FIG. 7.

In a further assay the test system is human hair follicles. The assay can be described thus: Hair cycle staging of cultured hair follicles (assays #1, #2, #3). The note with it: after 9 days of treatment, both tested individuals, all concentrations. The procedure:
Photodocuments from the Fontana Masson staining were used for hair follicle staging according to previously well-defined morphological criteria (Stenn K S et al, Controls of Hair Follicle Cycling; Physiol Rev 2001, 81:449-494, Müller-Röver S et al, A Comprehensive Guide for the Accurate Classification of Murine Hair Follicles in Distinct Hair Cycle Stages; J Invest Dermatol 2001, 117:3-15). The percentage of hair follicles in anagen, early, mid and late catagen was determined.
Photodocuments from the Fontana Masson staining were used for hair follicle staging according to previously well-defined morphological criteria (Stenn K S et al, Controls of Hair Follicle Cycling; Physiol Rev 2001, 81:449-494, Müller-Röver S et al, A Comprehensive Guide for the Accurate Classification of Murine Hair Follicles in Distinct Hair Cycle Stages; J Invest Dermatol 2001, 117:3-15). The percentage of hair follicles in anagen, early, mid and late catagen was determined in the different assays.

Assay [4] has as its system human anagen VI hair follicles. The assay can be described thus: Hair shaft elongation of organ-cultured hair follicles, assay #3 (culture HF 446). The note with it: for Rate of hair growth compared with control (in words): p<0.05. On the procedure: as §1, §2, §6, §4, §5

On to “GH: GH, pituitary hormone that stimulates the secretion of thymulin”, for which, in the assay on thymulin, the “Staining for thymulin compared with the control group (in words)” value is reported as “stained more intensively for thymulin”.

“Thymosin alpha-1 (SDAAVDTSSEITTKDLKEKKEVVEEAEN; ends and bridges not checked; UniProt P06454 2-29, looked up) [TA1, 28aa thymic peptide which modulates lymphocyte differentiation]”: the “Mean elongation in percent compared to day 0” value in assay [1] (100 ng/mL, Day 0) turned out to be 0.00%; in assay [1] (100 ng/mL, Day 1), 16.71%; in assay [1] (100 ng/mL, Day 3), 34.54%; in assay [1] (100 ng/mL, Day 5), 51.14%; in assay [1] (100 ng/mL, Day 7), 70.11%; in assay [1] (100 ng/mL, Day 9), 82.55%. Besides, the “Mean elongation in percent compared to day 0” value turned out to be 0.00% in assay [1] (1000 ng/mL, Day 0); 15.41% in assay [1] (1000 ng/mL, Day 1); 34.74% in assay [1] (1000 ng/mL, Day 3); 50.66% in assay [1] (1000 ng/mL, Day 5); 66.20% in assay [1] (1000 ng/mL, Day 7); 75.26% in assay [1] (1000 ng/mL, Day 9). For the same substance, the figures for the “Mean percentage of Ki67-positive cells” value in assay [2] (100 ng/mL) and in assay [2] (1000 ng/mL) were 25.15 percentage and 28.05 percentage, respectively. Moreover, the “Percentage of proliferating cells compared to the control (in words)” value in assay [2] (100 ng/mL) and in assay [2] (1000 ng/mL) was “less percentage of cells are proliferating” throughout. The “Mean relative darkening of the groups (measured by image J), Mean” value in assay [3] (100 ng/mL) is listed as 81.01; in assay [3] (1000 ng/mL), 71.61. Further, the “Influence on HF melanogenesis (in words)” value in assay [3] (quantitative Masson-Fontana histochemistry) is listed as “did not influence HF melanogenesis”. For the same substance, the “Hair follicles in anagen compared with control (in words)” value in the assay on human hair follicles is listed as “more hair follicles in anagen”. In addition, the “Mean elongation in % compared to day 0” value in assay [4] (100 ng/mL, Day 0) is 0%; in assay [4] (100 ng/mL, Day 1), 6.25%; in assay [4] (100 ng/mL, Day 3), 45.55%; in assay [4] (100 ng/mL, Day 5), 49.52%; in assay [4] (100 ng/mL, Day 7), 61.94%; in assay [4] (100 ng/mL, Day 9), 69.90%. Also, the “Mean elongation in % compared to day 0” value in assay [4] (1000 ng/mL, Day 0) stood at 0%; in assay [4] (1000 ng/mL, Day 1), 4.00%; in assay [4] (1000 ng/mL, Day 3) it was 37.95%; in assay [4] (1000 ng/mL, Day 5) it was 51.77%; in assay [4] (1000 ng/mL, Day 7), 68.36%; in assay [4] (1000 ng/mL, Day 9), 73.33%. In addition, the “Rate of hair growth compared with control (in words)” value in assay [4] (100 ng/mL) and in assay [4] (1000 ng/mL) was “significantly lowered rate of hair growth” throughout.
